Results taken from publication PMC12615753, “Glutathione as a taste modulator: molecular mechanisms of interaction with umami and sweet taste receptors” (Food Chemistry: Molecular Sciences, 2025).

Target: T1, hTAS1R1 L223A/rTAS1R3 (Homo sapiens, UniProt Q7RTX1, L223A)
T1 construct: UniProtKB number Q7RTX1–1); expressed in transfected cells; host or cells: HEK293T/17 (ATCC CRL-11268)
T1 sequence (Q7RTX1 21-841 L223A): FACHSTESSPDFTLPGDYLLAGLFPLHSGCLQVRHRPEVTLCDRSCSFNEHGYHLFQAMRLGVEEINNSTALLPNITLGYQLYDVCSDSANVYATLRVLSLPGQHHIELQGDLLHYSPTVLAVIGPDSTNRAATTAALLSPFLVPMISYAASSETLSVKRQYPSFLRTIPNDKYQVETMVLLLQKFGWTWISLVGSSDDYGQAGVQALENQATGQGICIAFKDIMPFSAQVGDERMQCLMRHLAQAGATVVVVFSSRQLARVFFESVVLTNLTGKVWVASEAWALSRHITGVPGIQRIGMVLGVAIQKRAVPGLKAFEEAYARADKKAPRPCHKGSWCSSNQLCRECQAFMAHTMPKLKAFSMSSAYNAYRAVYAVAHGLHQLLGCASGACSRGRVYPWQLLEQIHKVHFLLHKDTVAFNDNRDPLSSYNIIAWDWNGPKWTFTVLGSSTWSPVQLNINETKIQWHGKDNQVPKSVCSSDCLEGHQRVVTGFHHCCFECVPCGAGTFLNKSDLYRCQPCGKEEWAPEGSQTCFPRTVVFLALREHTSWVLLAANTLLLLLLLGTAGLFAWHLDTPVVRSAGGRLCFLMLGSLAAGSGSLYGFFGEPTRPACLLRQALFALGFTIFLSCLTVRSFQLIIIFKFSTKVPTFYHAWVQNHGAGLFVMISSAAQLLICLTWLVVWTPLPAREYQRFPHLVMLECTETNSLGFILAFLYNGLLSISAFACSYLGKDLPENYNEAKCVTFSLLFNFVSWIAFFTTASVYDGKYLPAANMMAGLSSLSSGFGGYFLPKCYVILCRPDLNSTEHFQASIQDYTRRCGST
T1 sequence (Q923K1 21-858 partner): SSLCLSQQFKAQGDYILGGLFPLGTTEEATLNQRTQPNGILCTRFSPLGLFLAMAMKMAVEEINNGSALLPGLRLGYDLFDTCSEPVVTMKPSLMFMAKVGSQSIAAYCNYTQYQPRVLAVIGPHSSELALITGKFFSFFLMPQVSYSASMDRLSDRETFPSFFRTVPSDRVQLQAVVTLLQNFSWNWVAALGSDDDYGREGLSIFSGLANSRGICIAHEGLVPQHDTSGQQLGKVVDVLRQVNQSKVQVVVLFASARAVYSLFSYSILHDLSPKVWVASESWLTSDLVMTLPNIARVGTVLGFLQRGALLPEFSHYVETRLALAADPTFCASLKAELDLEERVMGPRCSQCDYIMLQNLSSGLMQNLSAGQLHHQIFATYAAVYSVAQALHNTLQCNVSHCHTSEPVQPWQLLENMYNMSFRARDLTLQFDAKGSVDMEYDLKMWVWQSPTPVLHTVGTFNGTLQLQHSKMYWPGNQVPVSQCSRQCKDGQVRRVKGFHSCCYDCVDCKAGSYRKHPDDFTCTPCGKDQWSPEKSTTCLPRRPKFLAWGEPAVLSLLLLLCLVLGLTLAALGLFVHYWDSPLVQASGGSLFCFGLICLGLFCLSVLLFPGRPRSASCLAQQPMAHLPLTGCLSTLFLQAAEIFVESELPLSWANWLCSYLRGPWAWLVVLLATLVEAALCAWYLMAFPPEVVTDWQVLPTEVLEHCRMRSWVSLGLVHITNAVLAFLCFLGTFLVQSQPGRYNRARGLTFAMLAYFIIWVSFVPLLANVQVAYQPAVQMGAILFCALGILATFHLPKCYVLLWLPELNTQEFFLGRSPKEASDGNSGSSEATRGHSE
Test: Calcium assay, hTAS1R1 mutant co-expressed with rTAS1R3
Type: cell-based, rat

SMILES | EC50 | effect of the added compound (1 mM) on the response to L-Glu (L223A) | response to the agonist alone, vs WT (L223A) | Max ∆F/F0 (L223A, GSH) | R1 = mutant EC50/WT EC50 (L223A, GSH)
N[C@@H](CCC(=O)N[C@@H](CS)C(=O)NCC(=O)O)C(=O)O [GSH, γ-L-glutamyl-L-cysteinyl-glycine] | 2320 ± 308 µM | synergy was observed | significantly increased the initial amplitude | 1.71 ± 0.09 | 0.9
N[C@@H](CCC(=O)O)C(=O)O [L-Glu, L-glutamic acid, reference compound] | – | – | increased the amplitude | – | –
